The source of these data is patent publication US8847003B2, “Role of proteoglycans in drug dependence” (priority 2002, dated 2014).

The test system of series [1] is mouse hypothalamic protein extracts. Nature of the series: Cleavage of internally-quenched fluorogenic peptides by hypothalamic protein extracts. Type of series: biochemical. The following applies: 37° C., 50 mM Tris-HCl buffer, pH 7.0; for proteolytic cleavage of the fluorogenic peptide by hypothalamic extracts: peptide as substrate. An excerpt: According to one of the embodiments of the invention, syndecan-3 sheddases are identified by an assay for syndecan-3 cleavage, which requires knowledge of the cleavage site. The cleavage site for syndecan-3 cleavage is not presently completely identified. However, according to embodiments of the invention, we designed a battery of overlapping internally-quenched fluorogenic peptides spanning the juxta-membrane region of the mouse syndecan-3 (Amino Acid residues 355-388) labeled at their ends with Abz (ortho-aminobenzoyl) and EDDnp (ethylenediaminedinitrophenyl) for fluorescent detection of proteolytic cleavage (FIG. 7A). The peptides were individually incubated with mouse hypothalamic protein extracts at 37° C. in 50 mM Tris-HCl buffer, pH 7.0. Fluorescence was continuously measured at λex=320 nm and λem=420 nm. […] Proteolytic activity is expressed as reaction rate (activity/μl/min). […] Thus, this peptide or a peptide overlapping this peptide can be used in an assay to identify the sheddase of syndecan-3 and/or drugs that prevent or facilitate shedding (inhibitors, activators, mimics antimimics).
While the invention has been described in conjunction with the detailed description, the foregoing description is intended to illustrate and not limit the scope of the invention, which is defined by the scope of the appended claims. Other aspects, advantages, and modifications are within the scope of the following claims.

The subject of another series is syndecan-mutant mice. Nature of the series: Cue-induced reinstatement of cocaine-seeking behavior. It is filed as in vivo. The following applies: for reinstatement of cocaine seeking behavior in mice (figure legend): FIG. 6 legend. The text has this: . Separate groups of mice of the 3 syndecan mutant genotypes (syndecan-3 knockout, whole syndecan-1 transgenic, and syndecan-1 ectodomain transgenic mice) were trained to self-administer cocaine by intravenous injection as described above. Mice were subjected to 7 sessions of 1-hour access to self-administration followed by 8 sessions of 6-hour access as described above.
Mice were allowed one 1-hour extinction session/day for a minimum of 14 days, until an extinction criterion was reached. The extinction criterion was designated as a group mean of less than 10 responses/1 hour for two consecutive sessions on the active lever.
The conditions during testing were identical to those during the extinction phase, with the exception that lever presses led to presentations of the cocaine cue-light for 5 seconds. The 1-hour test session for cue-induced reinstatement were conducted on the day following the last extinction session. A one way ANOVA with one between factor (genotype, three) were used to measure any differential effects of the cocaine-related cue induced reinstatement.
In still another example, the following experiment was performed showing that a wide spectrum of MMP inhibitors block cue-induced reinstatement of cocaine seeking behavior. Lever-pressing behavior in cocaine self-administering syndecan-mutant mice was extinguished in the absence of the 20 sec cue light (CS) that was paired with cocaine infusions during the training phase as shown in Example 4. […] In FIG. 6B, After a few days, animals were again presented with the cue light non-contingently and on the third day of reinstatement they were administered IP the systemically active broad-spectrum MMP inhibitor prinomastat (20 mg/Kg) 30-60 min before the reinstatement sessions starting on the third session.

A short description of the next series: Rotarod performance. It is filed as in vivo, mice. The following applies: prinomastat at the dose used (20 mg/Kg IP); data not shown. On the technique in general: The rotarod test checks motor coordination on a turning rod.
The next series deals with syndecan-3. As to the kind of experiment: Western blot of uncleaved syndecan-3 after ICV GM-6001 in mice. The note with it: for uncleaved syndecan-3 / shedding of syndecan-3 (western blot, syndecan-3 C-terminal domain antibody): ICV at various doses, sacrificed 3 hours after administration. It is filed as in vivo, C57BL/6J mice. The text has this:
FIG. 5B. Quantification of western blot shown in (A).
Background: A western blot detects proteins with antibodies after separation by electrophoresis.

Ends that are not written are not given here.

Regarding `c1cnc2c(c1)ccc1cccnc12` [ortho-phenanthroline], in series [1] (fluorescence λex=320 nm, λem=420 nm), the “inhibition of hydrolysis of peptide 1 (Seq Id No. 3) by hypothalamic extract” value is recorded as “completely inhibited”.

Regarding `CC1(C)SCCN(S(=O)(=O)c2ccc(Oc3ccncc3)cc2)[C@H]1C(=O)NO` [prinomastat, Prinomastat], the “reinstatement of cocaine seeking behavior in mice (figure legend)” value in the series with syndecan-mutant mice was “block reinstatement of cocaine seeking behavior”. In the series on syndecan-mutant mice (prinomastat 20 mg/Kg IP 30-60 min before sessions, syndecan-1 ectodomain Tg mice, p<0.01 from last day before treatment), the responding during reinstatement entry is listed as “significantly declined”. In the series “Rotarod performance”, the “performance on the rotarod” value is “did not affect”.

Turning to Ilomastat [GM6001], in the series on syndecan-mutant mice, the “reinstatement of cocaine seeking behavior in mice (figure legend)” value is on record as “block reinstatement of cocaine seeking behavior”. The “responding during reinstatement, last day before treatment vs last day of treatment” value in the series with syndecan-mutant mice (GM6001 0.4 μg ICV 30-60 min before sessions, syndecan-3 KO mice) is “not significantly different”. The “cocaine seeking behavior (responding) during reinstatement” value in the series on syndecan-mutant mice (GM6001 0.4 μg ICV 30-60 min before sessions, whole syndecan-1 Tg mice, p<0.01 from last day before treatment) was “greatly reduced”. Also, the “uncleaved syndecan-3 / shedding of syndecan-3 (western blot, syndecan-3 C-terminal domain antibody)” value in the series with syndecan-3 is reported as “reduces shedding of syndecan-3”; in the series on syndecan-3 (listed as GM-6001), “accumulation of uncleaved syndecan-3”. The “increase of uncleaved syndecan-3 (quantification of western blot)” value in the series with syndecan-3 (ICV, highest doses tested (0.4 μg, 2.0 μg), p<0.01 from vehicle-injected control) is “about 3 fold”.

For Mca-PLQAV-Dpa-RSSSR-NH2 [Compound E003], the “proteolytic cleavage of the fluorogenic peptide by hypothalamic extracts” value in series [1] is “observed activity”.

Turning to “RPGLGLHDNA (not fully specified; also: fluorophore/quencher pair (positions not given here); listed as Mus musculus) [Peptide 1, internally-quenched fluorogenic peptide from mouse syndecan-3 juxta-membrane region]”, the “proteolytic cleavage of the fluorogenic peptide by hypothalamic extracts” value in series [1] is given as “efficiently hydrolized”.
